In one experiment the test system is PDGFRB. Kind of experiment: PDGFRB mRNA levels by qPCR. The format is cell-based, human. The following applies: primary NK cells, IL-15 10 ng/ml. As to the method: (§1) FIGS. 2A-2I. IL-15-induced PDGFRβ expression is mediated by PI3K/AKT signaling. (A-B) Primary NK cells were treated with IL-15 (10 ng/ml) for the indicated times. mRNA levels of PDGFRB at different time points (A) (n=3) or at 1 h (B) (n=10) were examined by qPCR. (C-D) Primary NK cells were pretreated with actinomycin D (ActD, 5., g/ml) (C) or cycloheximide (CHX, 20 μg/ml) (D) for 1 h, washed twice with RPMI-1640, and then treated with IL-15 (10 ng/ml) for 24 h. DMSO was used as a control. Expression levels of PDGFRβ were examined by flow cytometry (n=5). Data shown are representative histograms and percentage of inhibition with the equation: % inhibition=100×[1−(DMSO-inhibitor)/DMSO]. […] (G-I) Binding of p65 to the PDGFRB promoter in IL-15-treated NK cells (G) or resting NK cells (H) as determined by ChIP-qPCR or PCR (I) (n=3). […]
RNA was isolated using an RNeasy Mini Kit (QIAGEN) and reversely transcribed to cDNA with a PrimeScript RT Reagent Kit with gDNA Eraser (Takara Bio) according to the manufacturer's protocol. mRNA expression levels were analyzed using SYBR Green qPCR Master Mix and a QuantStudio 12K Flex Real-Time PCR System (both from Thermo Fisher Scientific). […]
On the technique in general: In qPCR the cycle at which signal appears reflects the starting amount.

For the next experiment, the system named is PDGFRB promoter. Kind of experiment: ChIP-qPCR, binding of p65 to the PDGFRB promoter. The format is cell-based, human. The settings on record: IL-15-stimulated NK cells (1 h); not in resting NK cells. Here is the method:
as §1, with “inhibition=[…]. (E) Primary NK cells were pretreated with wortmannin (1 μM), afuresertib (10 μM), TPCA-1 (1 μM), rapamycin (10 μM), torin1 (10 μM), decernotinib (10 μM), C118-9 (10 μM), STAT5-IN-1 (10 μM), AZD6244 (10 μM), or CI-1040 (10 μM) for 1 h, washed twice with RPMI 1640, and then treated with IL-15 (10 ng/ml) for 24 h. DMSO was used as control. Data shown are % of inhibition (n=5). The mean value of the inhibitory rate is shown.” for “inhibition=100×[1−(DMSO-inhibitor)/DMSO].”
Primary NK cells were treated with IL-15 for 1 h. […] The enriched chromatin was analyzed by qPCR using the following primers: […]

From patent publication US20250017964A1, “ENGINEERING OR INDUCING PDGF AND/OR PDGFR SIGNALING TO ENHANCE NK CELL THERAPY” (City of Hope, priority 2021, published 2025) come the findings set out here.

Consider “IL-15: recombinant human IL-15 (200-15); recombinant murine IL-15 in the mouse NK cell test”, for which, in the experiment with PDGFRB, the “mRNA levels of the PDGFRB gene” value is recorded as “increased significantly”. Further, the “p65 associated with the PDGFRB promoter versus normal IgG control” value in the experiment with PDGFRB promoter is “significantly higher levels”.
